Assays:
[1] = system: IFN induction in cGAMP-stimulated THP1 cells; test: cGAMP stimulated counter cell assay in THP1-Dual cells (THP1(cGAMP) IC50); format: cell-based, human; settings: Table 1; for IC50: Homo sapiens, THP-1, counter assay, 10 μM cGAMP stimulation, read-out: THP(cGAMP) IC50; for Ratio THP(cGAMP) IC50/THP(vir) IC50: selectivity for cGAS-inhibition
From the text: 6.2 Method: Human cGAS Cell Assay and cGAMP Stimulated Counter Cell Assay (THP1(vir) IC50 and THP1(cGAMP) IC50)
For the counter assay, cells were stimulated by cGAMP (SigmaAldrich #SML1232) to activate the identical pathway independent and directly downstream of cGAS (measurement of THP1(cGAMP) IC50).
Pathway activity was monitored by measuring the Lucia luciferase activity induced by either DNA stimulated cGAS enzyme activity (measurement of THP1(vir) IC50) or by cGAMP directly (measurement of THP1(cGAMP) IC50, counter assay).
(§1) Compounds were delivered in 10 mM DMSO solution, serially diluted and transferred to the 384 well assay plate (Greiner #781201) using an Echo acoustic dispenser. Typically, 8 concentrations were used with the highest concentration at 10 μM in the final assay volume followed by ^˜1:5 dilution steps. DMSO concentration was set to 1% in the final assay volume. The 384 well assay plate contained 21 test compounds (column 1-22), and DMSO in column 23 and 24.
Cells, cultivated according to manufacturer conditions, were harvested by centrifugation at 300 g/10 min and were then resuspended and diluted to 1.66E5 cells/ml in fresh cell culture medium (RPMI 1640 (Gibco #A10491-01), 10% FCS (Gibco #10500), 1× GlutaMax (Gibco #35050-061), 1× Pen/Strep solution (Gibco #15140-122), 100 μg/ml Normocin (InvivoGen #ant-nr), 100 μg/ml Zeocin (InvivoGen #ant-zn), 10 μg/ml Blasticidin S (Life Technologies #A11139-03)). The baculovirus solution was then added 1:200 (have varied according to virus batch) to the cells (measurement of THP1(vir) IC50).
30 μL of the cell/virus-mix were added to each well of the compound plate from column 1-23 via MultiDrop Combi dispenser (5000 cells/well). In column 24, 30 μl/5000 cells/well without virus were added as a low control.
The plates were then incubated for 18 h at 37° C. in a humidified incubator.
Following that, 15 μL of QuantiLuc detection reagent (InvivoGen #rep-qlcg5) were added to each well using a MultiDrop Combi. Measurement was done immediately after the addition using an EnVision reader (US-luminescence read-mode).
(§2) Data Evaluation and Calculation:
(§3) For data evaluation and calculation, the measurement of the low control was set as 0% control and the measurement of the high control was set as 100% control. The IC50 values were calculated using the standard 4 parameter logistic regression formula. Calculation: [y=(a−d)/(1+(x/c)^b)+d], a=low value, d=high value; x=conc M; c=IC50 M; b=slope

cGAS = cGAS (Homo sapiens, UniProt Q8N884); test: Human cGAS enzyme assay (hcGAS IC50, in vitro), cGAMP formation by RapidFire MS; format: biochemical; parameters: HumancGAS (amino acid 1-522) with an N-terminal 6×-His-tag and SUMO-tag; 6xHis (N); SUMO (N); made in house; host or cells: E. coli BL21(DE3) pLysS; settings: Table 1; 45 bp dsDNA-activated enzyme
Procedure: 6.1 Method: Human cGAS Enzyme Assay (hcGAS IC50 (In Vitro))
Human cGAS enzyme was incubated in the presence of a 45 base pair double stranded DNA to activate the enzyme and GTP and ATP as substrates. Compound activity was determined by measuring the effect of compounds on the formation of the product of the enzyme reaction, cGAMP, which is measured by a mass spectrometry method.
HumancGAS (amino acid 1-522) with an N-terminal 6×-His-tag and SUMO-tag was expressed in E. coli BL21(DE3) pLysS (Novagen) cells for 16 h at 18° C. Cells were lysed in buffer containing 25 mM Tris (pH 8), 300 mM NaCl, 10 mM imidazole, 10% glycerol, protease inhibitor cocktail (cOmplete™, EDTA-free, Roche) and DNase (5 μg/mL). […] Purified protein was concentrated to 1.7 mg/mL and stored at −80° C.
as §1, with “22” for “21”
After the compound transfer, 15 μL of the enzyme-DNA-working solution (12 nM cGAS, 0.32 μM 45base pair DNA in assay buffer, 10 mM Tris pH 7.5/10 mM KCl/5 mM MgCl2/1 mM DTT) were added to each well from column 1-23 via a MultiDrop Combi dispenser. In column 24, 15 μl of assay buffer without enzyme/DNA were added as a low control.
The plates were then pre-incubated for 60 min at room temperature.
Following that, 10 μL of GTP (ThermoFisher #R0461)-ATP (Promega #V915B) mix in assay buffer were added to the assay plate (columns 1-24, 30 μM final concentration each) using a Multidrop Combi.
The plates were incubated again for 90 min at room temperature.
Following the incubation, the reaction was stopped by 80 μL of 0,1% formic acid in assay buffer containing 5 nM cyclic-di-GMP (Sigma #SML1228) used as internal standard for the mass spectrometry. The total volume/well was 105 μL.
The plates were centrifuged at 4000 rpm, 4° C., for 5 min.
The RapidFire autosampler was coupled to a binary pump (Agilent 1290) and a Triple Quad 6500 (ABSciex, Toronto, Canada). […] Aspiration time: 250 ms; Load time: 3000 ms; Elute time: 3000 ms; Wash volume: 500 μL.
The MS was operated in positive ion mode with HESI ion source, with a source temperature of 550 C, curtain gas=35, gas 1=65, and gas 2=80. Unit mass resolution in SRM mode. The following transitions and MS parameters (DP: declustering potential and CE: collision energy) for cGAMP and DicGMP were determined:
Internal standard: cyclic-di-GMP at 690.1/540, DP=130, CE=30.
The formation of cGAMP was monitored and evaluated as ratio to cyclic-di-GMP.
as §2
as §3, with “c=1C50” for “c=IC50”

Chain of cGAS (Q8N884 whole entry): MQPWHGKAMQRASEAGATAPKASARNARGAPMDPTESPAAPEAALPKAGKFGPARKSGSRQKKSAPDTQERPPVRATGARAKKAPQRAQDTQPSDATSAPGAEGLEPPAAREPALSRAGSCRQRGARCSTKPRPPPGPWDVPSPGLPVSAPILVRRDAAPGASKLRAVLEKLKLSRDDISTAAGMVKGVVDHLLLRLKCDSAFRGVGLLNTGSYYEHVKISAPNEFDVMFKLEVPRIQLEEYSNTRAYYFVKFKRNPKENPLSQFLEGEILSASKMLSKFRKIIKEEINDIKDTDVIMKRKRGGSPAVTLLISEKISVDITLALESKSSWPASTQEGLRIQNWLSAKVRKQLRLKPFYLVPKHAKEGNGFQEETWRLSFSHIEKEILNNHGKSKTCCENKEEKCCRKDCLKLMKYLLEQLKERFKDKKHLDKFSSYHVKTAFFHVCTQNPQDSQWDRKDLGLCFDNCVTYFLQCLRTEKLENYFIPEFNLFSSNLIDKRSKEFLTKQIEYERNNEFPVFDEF

| SMILES | IC50 [1] [nM] | Ratio THP(cGAMP) IC50/THP(vir) IC50 [1] | IC50 (cGAS) [nM] |
| --- | --- | --- | --- |
| C[C@H]1CN2CC[C@@H]1n1c(nc3ccccc31)O[C@H]1C[C@@H](C(=O)O)N(C1)c1nc(nc3c1oc1ccccc13)C(F)(F)CCCCC(F)(F)C2=O [Example 1.17] | 6600 | 519 | 7.2 |
| C[C@H]1CN2CC[C@@H]1n1c(nc3cc(F)ccc31)O[C@H]1C[C@@H](C(=O)O)N(C1)c1nc(nc3c1oc1ccccc13)C(F)(F)CCCCC(F)(F)C2=O [Example 1.18] | 10000 | 270 | 3.9 |
| C[C@H]1CN2CC[C@@H]1n1c(nc3ccccc31)O[C@H]1C[C@@H](C(=O)O)N(C1)c1nc(nc3c1oc1ccccc13)CCCCCC2=O [Example 1.19] | 11000 | 277 | 3.8 |
| CC1CCc2nc(c3oc4ccccc4c3n2)N2C[C@H](C[C@H]2C(=O)O)Oc2nc3cc(Cl)ccc3n2[C@H]2CCN(C[C@@H]2C)C(=O)CCO1 (stereo partly drawn) [Example 1.20] | > 10000 | >773 | 4.9 |
| C[C@H]1CN2CC[C@@H]1n1c(nc3cc(Cl)ccc31)O[C@H]1C[C@@H](C(=O)O)N(C1)c1nc(nc3c1oc1ccccc13)C(F)(F)CCCOCC2=O [Example 1.21] | > 10000 | >5238 | 3.3 |
| C[C@H]1CN2CC[C@@H]1n1c(nc3ccccc31)O[C@H]1C[C@@H](C(=O)O)N(C1)c1nc(nc3c1oc1cc(Cl)ccc13)C(F)(F)CCCOCC2=O [Example 1.22] | > 10000 | >6579 | 2.7 |
| C[C@H]1CN2CC[C@@H]1n1c(nc3ccccc31)O[C@H]1C[C@@H](C(=O)O)N(C1)c1nc(nc3c1oc1ccccc13)CCCC(C)(C)CCC2=O [Example 1.23] | 9500 | 51 | 41 |
| C[C@H]1CCCCC(=O)N2CCC(CC2)n2c(nc3ccccc32)O[C@H]2C[C@@H](C(=O)O)N(C2)c2nc1nc1c2oc2ccccc21 [Example 1.25] | > 10000 | >1251 | 5.5 |
| C[C@@H]1CCCCC(=O)N2CCC(CC2)n2c(nc3ccccc32)O[C@H]2C[C@@H](C(=O)O)N(C2)c2nc1nc1c2oc2ccccc21 [Example 1.26] | 15000 | 2687 | 3.4 |
| Cc1cccc2c1nc1n2[C@@H]2CCN(C[C@H]2C)C(=O)CCCCCC(F)(F)c2nc(c3oc4ccccc4c3n2)N2C[C@H](C[C@H]2C(=O)O)O1 [Example 1.27] | 6000 | 33 | 100 |
| Cc1cccc2c1nc1n2[C@H]2CCN(C[C@@H]2C)C(=O)CCCCCC(F)(F)c2nc(c3oc4ccccc4c3n2)N2C[C@H](C[C@H]2C(=O)O)O1 [Example 1.28] | 4000 | 267 | 11 |
| C[C@H]1CN2CC[C@@H]1n1c(nc3ccccc31)O[C@H]1C[C@@H](C(=O)O)N(C1)c1nc(nc3c1oc1ccccc13)C(F)(F)COCCCCC2=O [Example 3.01] | 14000 | 32066 | 2.1 |
| C[C@H]1CN2CC[C@@H]1n1c(nc3ccccc31)O[C@H]1C[C@@H](C(=O)O)N(C1)c1nc(nc3c1oc1ccccc13)C(F)(F)COCCCC2=O [Example 4.01] | > 10000 | >14442 | 1.7 |
| O=C(O)[C@@H]1C[C@H]2CN1c1nc(nc3c1oc1ccccc13)COCCCCCC(=O)N1CCC(CC1)n1c(nc3cccc(F)c31)O2 [Example 5.01] | > 10000 | >260 | 5.5 |
| C[C@H]1CN2CC[C@@H]1n1c(nc3cc(Cl)ccc31)O[C@H]1C[C@@H](C(=O)O)N(C1)c1nc(nc3c1oc1ccccc13)C(F)(F)OCCCCC2=O [Example 6.01] | > 10000 | >2225 | 3.5 |
| C[C@@H]1CC(=O)N2CCC(CC2)n2c(nc3ccccc32)O[C@H]2C[C@@H](C(=O)O)N(C2)c2nc(nc3c2oc2ccccc23)CCCO1 [Example 7.01] | 3500 | 23 | 8.8 |
| O=C(O)[C@@H]1C[C@H]2CN1c1nc(nc3c1oc1ccccc13)COCCCC(F)(F)C(=O)N1CCC(CC1)n1c(nc3ccccc31)O2 [Example 8.01] | > 10000 | 255 | 5.6 |
| C[C@@H]1CN2CC[C@H]1n1c(nc3ccccc31)O[C@H]1C[C@@H](C(=O)O)N(C1)c1nc(nc3c1oc1ccccc13)CCCCCOC2=O [Example 10.01] | 8200 | 45 | 54 |
| C[C@H]1CN2CC[C@@H]1n1c(nc3ccccc31)O[C@H]1C[C@@H](C(=O)O)N(C1)c1nc(nc3c1oc1ccccc13)CCCCCOC2=O [Example 10.02] | > 10000 | >156 | 34 |
| O=C(O)[C@@H]1C[C@H]2CN1c1nc(nc3c1oc1ccccc13)OCCCCOC(=O)N1CCC(CC1)n1c(nc3ccccc31)O2 [Example 11.01] | > 1000 | >56 | 10 |
| C[C@H]1CN2CC[C@@H]1n1c(nc3ccccc31)O[C@H]1C[C@@H](C(=O)O)N(C1)c1nc(nc3c1oc1ccccc13)CCCCCN(C)C2=O [Example 13.01] | 7300 | 15 | 34 |

From patent US20240208997A1, “CYCLIC BENZIMIDAZOLE DERIVATIVES AS CGAS INHIBITORS” (Boehringer Ingelheim International GmbH, priority 2022, published 2024)
